# Results reported in patent US20210308028A1, “Compositions and Methods for Maintaining and Protecting Tissue Integrity and Barrier Function” (Colgate-Palmolive Company, priority 2020, published 2021).
# How the values were obtained:
# [1] = system: B11 immortalized human gingival keratinocyte cell line; assay: Paracellular permeability to FITC-dextran (FD-4); type: cell-based; conditions: no challenge; over 48 h; FIGS. 7, 10, 13
# Method: The ability of test composition samples to enhance epithelial barrier integrity was assessed by monitoring the paracellular transport of FITC-conjugated 4.4-kDa dextran (FD-4; Sigma-Aldrich Canada Ltd.) across the keratinocyte layer. Briefly, B11 cells were cultured on Transwell filters, and FD-4 ([…] in culture medium) was added in the apical compartment in the presence of the test composition under investigation. Fluorescence in the basolateral compartment was measured at 0, 4, 8, 24, and 48 h using a Synergy 2 microplate reader (BioTek Instrument, Winooski, Vt., USA).
# Briefly, B11 cells were cultured on Transwell™ filters, and FD-4 (1 mg/mL in culture medium) was added to the apical compartment in the presence of the test compounds. The presence of FD-4 in the basolateral compartment was determined at 0, 2, 6, 24, and 48 h by measuring the fluorescence (RUF; excitation wavelength 495 nm; emission wavelength 525 nm) using a Synergy 2 microplate reader.
# [2] = system: zonula occludens-1 and occludin in B11 gingival keratinocytes; assay: Immunofluorescent staining of zonula occludens-1 and occludin; type: cell-based, human; conditions: no challenge; Example 3, FIGS. 8, 11, 14
# Method: (§1) Gingival keratinocytes treated as described above for 12 h were immunostained for zonula occludens-1 and occludin, two tight junction proteins. Briefly, the cells were fixed in 50 mM phosphate-buffered saline (pH 7.2) (PBS) containing 4% paraformaldhehyde for 20 min, permeabilized with 0.1% Triton X-100 for 10 min, and blocked in 3% non-fat milk in 20 mM Tris-HCl (pH 8), 150 mM NaCl, and 0.5% Tween 20 for 40 min. […] After washing with PBS, the cells were then treated with ProLong® Diamond antifade (Life Technologies). The slides were sealed with nail polish and were kept in the dark at 4° C. The localization of tight junction proteins in B11 cells was visualized using an Olympus FSX100 fluorescence microscope and FSX-BSW imaging software (Olympus, Tokyo, Japan). Immunofluorescent staining of tight junction proteins is a qualitative assay.
# The localization of the tight junction proteins in B11 cells was visualized using an Olympus FSX100 fluorescence microscope and FSX-BSW imaging software (Olympus, Tokyo, Japan).
# [3] = system: B11 gingival keratinocytes treated with TNF-α; assay: TER with TNF-α challenge; type: cell-based, human; conditions: Example 5, FIGS. 24, 27, 29, 30
# Method: Tight junction integrity was assessed by determining the trans-epithelial electrical resistance (TER). B11 gingival keratinocytes were seeded onto Costar™ Transwell™ clear polyester membrane inserts (6.5-mm diameter; 0.4-μm pore size; Corning Co., Cambridge, Mass., USA) at 3×10^5 cells per insert. The basolateral and apical compartments were filled with 0.6 mL and 0.1 mL of complete K-SFM, respectively. Following a 72-h incubation, the conditioned medium was replaced with antibiotic-free K-SFM, and the cells were incubated for a further 16 h. The TER values were measured using an Ohm/voltmeter (EVOM2; World Precision Instruments, Sarasota, Fla., USA) at 0, 4, 8, 24, 48, and 72 h. Resistance values were calculated in Ohms (Ω)/cm 2 by multiplying the resistance values by the filter surface area. Results were expressed as percentage of the basal control values measured at time 0 h (100% values) for each condition.
# (§2) Assays exposed cells to either TNFα only or TNFα+test composition. TNFα is known to cause tissue damage. A stock solution of recombinant TNF-α is prepared in sterile distilled water at 100 μg/ml. Thereafter, dilutions are made in keratinocyte culture medium. First dilution is 1/1000 to obtain 100 ng/ml. TNF-α and the test compounds are added simultaneously.
# Keratinocyte barrier integrity was determined by monitoring transepithelial electrical resistance (TER). Briefly, keratinocytes (3×10^5 cells per insert; 0.1 ml) were seeded in the apical compartment of Costar™ Transwell™ clear polyester membrane inserts (6.5 mm in diameter, 0.4 μm pore size; Corning Co., Cambridge, Mass., USA), while the basolateral compartment was filled with 0.6 ml of culture medium. After 72-h of incubation, the conditioned culture medium was replaced with fresh antibiotic-free K-SFM, and the cells were further incubated for 16 h prior treating the cells. Recombinant human TNF-α (100 ng/ml; AnaSpec, Fremont, USA) and the formulations (final dilutions of 1/500, 1/1000, and 1/2000 (v/v for the aqueous solution; w/v for the dentifrice) under investigation were added to the apical compartment. The TER values were monitored using an ohm/voltmeter (EVOM^2; World Precision Instruments, Sarasota, Fla., USA) after 0, 6, 24, and 48 h of incubation. The TER values in Ohms (Ω)/cm^2 were determined by multiplying the resistance values by the surface area of the membrane filter. Results are expressed as the percentage of the basal control value measured at time 0-h (100% value).
# [4] = system: hemolytic activity of P. gingivalis; assay: Hemolytic assay with sheep red blood cells; type: cell-based, Porphyromonas gingivalis; conditions: Example 6, FIGS. 37, 40, 43; red blood cells from sheep
# Method: A hemolytic assay is performed as follows. Fresh sheep red blood cells (Nutri-Bact, Terrebonne, QC, Canada) were harvested from heparinized whole blood by centrifugation (600×g for 5 min), washed three times in phosphate-buffered saline (PBS; pH 7.0), and suspended in PBS to a concentration of 2% (v/v). Equal volumes (1 mL) of red blood cells, P. gingivalis cells (OD660=1.0 in PBS), and two-fold serial dilutions of the Test composition were mixed together. PBS replaced the bacteria in the negative control. Following an incubation at 37° C. for 4 h, the mixtures were incubated at 4° C. for 1 h and were then centrifuged (10 000×g for 5 min) prior to recording the absorbance of the supernatants at 540 nm (A540). 1 ml P. gingivalis+1 ml of red blood cells+1 ml of test compounds used in the hemolysis assay are incubated at 37° C. for to 4 h. All constituents are added at the same time. […]
# Fresh sheep red blood cells (Nutri-B act, Terrebonne, QC, Canada) were harvested from heparinized whole blood by centrifugation (600×g for 5 min), washed three times in phosphate-buffered saline (PBS; pH 7.0), and suspended in PBS to a concentration of 2% (v/v). […] Following an incubation at 37° C. for 4 h, the mixtures were incubated at 4° C. for 1 h and were then centrifuged (10 000×g for 5 min) prior to recording the absorbance of the supernatants at 540 nm (A540).
# [5] = system: occludin and zonula occludens-1 in TNF-α-treated gingival keratinocytes; assay: Immunofluorescence of tight junction proteins with TNF-α challenge; type: cell-based, human; conditions: Example 5, FIGS. 26, 33, 34
# Method: as §1, §2
# P. gingivalis = P. gingivalis invasion / translocation through keratinocyte layer; type: cell-based, Porphyromonas gingivalis; conditions: Example 6, FIGS. 36, 39, 42
# Method: Assays were performed to determine the extent formulations can inhibit and reduce invasion of cell monolayer by P. gingivalis.
# The basolateral and apical compartments were filled with 0.235 mL and 0.075 mL of K-SFM, respectively. Following a 48-h incubation, the conditioned medium was replaced with antibiotic-free K-SFM. To determine the ability of P. gingivalis to penetrate the keratinocyte layer, FITC-labeled bacteria suspended in antibiotic-free K-SFM were added to the apical compartment of the double-chamber system at an MOI of 10^4. […] To evaluate the effect of the Dual Zinc plus Arginine aqueous solution and dentifrice on the invasive capacity of P. gingivalis, the keratinocyte layer was co-incubated with them and the bacteria. The translocation of FITC-labeled bacteria through the keratinocyte barrier was monitored using a Synergy 2 microplate reader by measuring the fluorescence (RUF; excitation wavelength 495 nm; emission wavelength 525 nm) in the medium recovered from the lower chamber following a 24-h incubation in an anaerobic chamber at 37° C.
Compound,paracellular permeability to FITC-dextran [1],"immunofluorescence of tight junction proteins (Occludin, Zonula Occludens-1) [2]",TER with TNFα challenge [3],inhibition of hemolytic activity of P. gingivalis [4],TNFα induced cell junction disorganization (immunofluorescence) [5],invasion of an epithelial cell monolayer by P. gingivalis (P. gingivalis)
O=C([O-])CC(O)(CC(=O)[O-])C(=O)[O-].O=C([O-])CC(O)(CC(=O)[O-])C(=O)[O-].[Zn+2].[Zn+2].[Zn+2] [zinc citrate],decreased with the increase in concentration of zinc citrate,enhances barrier integrity,can prevent tissue from the TNFα induced TER decrease,inhibited P. gingivalis hemolysis,,
[O]=[Zn] [zinc oxide],decreased with the increase in concentration of zinc oxide,enhances barrier integrity,prevented tissue from the TNFα induced TER decrease,inhibited P. gingivalis hemolysis,prevents TNFα induced cell junction disorganization,inhibits invasion of an epithelial cell monolayer
